Assay results from PMC2654417 (Combinatorial chemistry & high throughput screening, 2008).
Where two headings read alike, the source gives them in different places.

Molecular target: T1, glucocorticoid receptor (GR) (Homo sapiens, UniProt P04150)
T1 sequence (P04150 1-777): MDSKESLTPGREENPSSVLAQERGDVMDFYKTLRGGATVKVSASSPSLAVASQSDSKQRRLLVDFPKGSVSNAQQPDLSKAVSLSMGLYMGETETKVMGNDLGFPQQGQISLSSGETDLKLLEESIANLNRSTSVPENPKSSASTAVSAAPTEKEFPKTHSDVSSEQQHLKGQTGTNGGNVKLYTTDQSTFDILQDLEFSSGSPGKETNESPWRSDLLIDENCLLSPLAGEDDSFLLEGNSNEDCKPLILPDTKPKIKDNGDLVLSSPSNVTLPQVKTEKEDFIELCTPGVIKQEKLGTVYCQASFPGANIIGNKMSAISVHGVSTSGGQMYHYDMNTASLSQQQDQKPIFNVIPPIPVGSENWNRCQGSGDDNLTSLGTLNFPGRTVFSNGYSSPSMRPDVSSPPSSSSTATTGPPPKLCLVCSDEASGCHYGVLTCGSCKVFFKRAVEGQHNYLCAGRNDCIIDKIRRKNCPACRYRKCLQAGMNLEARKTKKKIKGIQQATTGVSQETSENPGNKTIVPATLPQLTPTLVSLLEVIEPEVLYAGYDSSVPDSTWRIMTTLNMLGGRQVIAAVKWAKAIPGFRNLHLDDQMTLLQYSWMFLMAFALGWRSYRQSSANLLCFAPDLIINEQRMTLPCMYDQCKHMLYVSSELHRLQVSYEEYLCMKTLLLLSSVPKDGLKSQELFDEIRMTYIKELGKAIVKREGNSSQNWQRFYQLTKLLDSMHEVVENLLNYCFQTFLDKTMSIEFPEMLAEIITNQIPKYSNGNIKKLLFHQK
Assay: GR-EFC nuclear translocation assay
Assay type: cell-based
Conditions: for EC50: read-out: qEC50; for qHTS Hill Slope: Hill slope of the qHTS curve fit; for qHTS Max Activity: maximal activity of the qHTS curve, inactive threshold […] (3σ); for log qEC50: log10 of qEC50 in M, printed as negative values

[1] = qHTS curve fit, class 4 values are fit defaults
[2] = class 4 values are fit defaults

| Compound | qHTS Hill Slope | qHTS Max Activity | EC50 [1] | also measured |
| --- | --- | --- | --- | --- |
| C#C[C@@]1(OC(C)=O)CC[C@@H]2[C@@H]3CCC4=C[C@@H](OC(C)=O)CC[C@H]4[C@H]3CC[C@]21C [NCGC00016417-01] |  |  |  | qHTS Curve Class: 4 (inactive, where activity was below 28.6% (3σ for the present assay)); EC50: > 9 µM |
| C#C[C@@]1(O)CC[C@@H]2[C@@H]3CCC4=CC(=O)CC[C@@]4(C)[C@H]3CC[C@]21C [NCGC00016444-01] | 0.97 | 15.2 |  |  |
| CC(=O)O[C@H]1C[C@H]2CC[C@@H]3[C@@H](CC[C@]4(C)[C@H](OC(C)=O)[C@H]([N+]5(C)CCCCC5)C[C@@H]34)[C@]2(C)C[C@H]1[N+]1(C)CCCCC1 [NCGC00016716-01] |  |  | > 9 µM |  |
| C[C@@]12C[C@@H](O)[C@H]3[C@@H](CCC4=CC(=O)CC[C@]43C)[C@H]1CC[C@H]2C(=O)CO [NCGC00015222-01] | 0.77 | 64.0 | 0.179 µM | log qEC50 [2]: −6.747 |
| C#C[C@]1(O)CC[C@H]2[C@H]3CCC4=Cc5oncc5C[C@]4(C)[C@@H]3CC[C@]21C [NCGC00024732-01] |  |  |  | qHTS Curve Class: 4 (inactive, where activity was below 28.6% (3σ for the present assay)); EC50: > 9 µM |
| C#C[C@]1(O)CC[C@@H]2[C@H]3CCC4=Cc5oncc5C[C@]4(C)[C@@H]3CC[C@@]21C [NCGC00016726-01] |  |  |  | qHTS Curve Class: 4 (inactive, where activity was below 28.6% (3σ for the present assay)); EC50: > 9 µM |
| CCC(=O)O[C@H]1CC[C@H]2[C@@H]3CCC4=CC(=O)CC[C@]4(C)[C@H]3CC[C@]12C [NCGC00016254-01] |  |  | > 9 µM |  |
| C=C(C)[C@H]1CC[C@]2(C(=O)O)CC[C@]3(C)[C@@H](CC[C@H]4[C@@]5(C)CC[C@@H](O)C(C)(C)[C@@H]5CC[C@@]43C)[C@H]12 [NCGC00016449-01] |  |  |  | qHTS Curve Class: 4 (inactive, where activity was below 28.6% (3σ for the present assay)); EC50: > 9 µM |
| CC(=O)[C@@H]1CC[C@@H]2[C@@H]3CC=C4C[C@H](OS(=O)(=O)O)CC[C@@]4(C)[C@H]3CC[C@]21C [NCGC00016184-01] |  |  | > 9 µM |  |
| C[C@@]12CC[C@@H]3c4ccc(O)cc4C[C@H](CCCCCCCCC[S+]([O-])CCCC(F)(F)C(F)(F)F)[C@H]3[C@@H]1CC[C@@H]2O (stereo partly shown) [NCGC00024964-01] |  |  | > 9 µM |  |
| C[C@@]12CC[C@H]3[C@@H](CCC4=C(O)C(=O)CC[C@]43C)[C@H]1CCC2=O [NCGC00015070-01] |  |  | > 9 µM |  |
| C[C@]12Cc3cn4c(nc3C=C1CC[C@H]1[C@@H]2CC[C@@]2(C)[C@H]1CC[C@@]2(O)C#N)nc1ccccc14 [NCGC00016090-01] |  |  |  | qHTS Curve Class: 4 (inactive, where activity was below 28.6% (3σ for the present assay)); EC50: > 9 µM |
| COc1cc2c(cc1OC)-c1c(OC)c(OC)c(CO)c3c1[C@H](C2)N(C)CC3 [NCGC00017307-01] |  |  |  | qHTS Curve Class: 4 (inactive, where activity was below 28.6% (3σ for the present assay)); EC50: > 9 µM |
| CC(C)(O)/C=C\C(=O)[C@](C)(O)[C@H]1[C@H](O)C[C@]2(C)[C@@H]3CC=C4[C@@H](C=C(O)C(=O)C4(C)C)[C@]3(C)C(=O)C[C@@]12C [NCGC00014911-01] |  |  |  | qHTS Curve Class: 4 (inactive, where activity was below 28.6% (3σ for the present assay)); EC50: > 9 µM |
| CCOC(=O)O[C@]1(C(=O)COC(=O)CC)CC[C@H]2[C@@H]3CCC4=CC(=O)C=C[C@]4(C)[C@H]3[C@@H](O)C[C@@]21C [NCGC00016926-01] | 0.96 | 30.2 | 0.00944 µM | log qEC50 [2]: −8.025 |
| COc1cc2c(cc1O)CCC1C2CC[C@@]2(C)C1CC[C@@H]2O (stereo partly shown) [NCGC00025300-01] |  |  | > 9 µM |  |
| CC[C@@H]1Cc2cc(O)ccc2C2=C1c1ccc(O)cc1C[C@H]2CC [NCGC00015377-01] |  |  |  | qHTS Curve Class: 4 (inactive, where activity was below 28.6% (3σ for the present assay)); EC50: > 9 µM |
| C[C@]12CC[C@H](O)CC1=CC[C@@H]1[C@H]2CC[C@]2(C)C(=O)CC[C@H]12 [NCGC00015341-01] |  |  | > 9 µM |  |
| COc1ccc2c(c1)CC[C@H]1[C@@H]2CC[C@@]2(C)[C@@H](NCCCCCCN3C(=O)C=CC3=O)CC[C@@H]12 [NCGC00025091-01] |  |  | > 9 µM |  |
| CC1(C)O[C@@H]2C[C@H]3[C@@H]4C[C@H](F)C5=CC(=O)C=C[C@]5(C)[C@H]4[C@@H](O)C[C@]3(C)[C@]2(C(=O)CO)O1 [NCGC00016983-01] | 0.57 | 97.1 | 0.00485 µM | log qEC50 [2]: −8.315 |

| Compound | qHTS Hill Slope | qHTS Max Activity | EC50 [1] | also measured |
| --- | --- | --- | --- | --- |
| C[C@H](CCC(=O)O)[C@H]1CC[C@H]2[C@@H]3[C@H](O)C[C@@H]4C[C@H](O)CC[C@]4(C)[C@H]3C[C@H](O)[C@]12C [NCGC00013426-01] |  |  | > 9 µM |  |
| C#C[C@]1(O)CC[C@@H]2[C@H]3CCc4cc(OC)ccc4[C@@H]3CC[C@@]21C [NCGC00016310-01] |  |  | > 9 µM |  |
| C[C@]12CC[C@H]3[C@@H](CCC4=CC(=O)CC[C@@]43C)[C@@H]1CC[C@@H]2C(=O)CO [NCGC00016292-01] |  |  | > 9 µM |  |
| C[C@]12C=CC(=O)C=C1CC[C@@H]1[C@H]3C[C@@H](O)[C@](O)(C(=O)CO)[C@]3(C)C[C@H](O)[C@]12F [NCGC00016037-01] | 1.03 | 113.5 | 0.273 µM | log qEC50 [2]: −6.563 |
| CC(=O)[C@H]1CC[C@H]2[C@@H]3C[C@H](C)C4=CC(=O)CC[C@]4(C)[C@H]3[C@@H](O)C[C@]12C [NCGC00016616-01] | 0.13 | 100.0 | 4.16 µM | log qEC50 [2]: −5.381 |
| C#C[C@@]1(O)CC[C@H]2[C@H]3CCC4=Cc5oncc5C[C@]4(C)[C@@H]3CC[C@@]21C [NCGC00015375-01] |  |  |  | qHTS Curve Class: 4 (inactive, where activity was below 28.6% (3σ for the present assay)); EC50: > 9 µM |
| C[C@@]12CC[C@H]3[C@@H](CC=C4C[C@H](OS(=O)(=O)O)CC[C@]43C)[C@H]1CCC2=O [NCGC00016143-01] |  |  | > 9 µM |  |
| CCC[C@@H]1CC2=CC(=O)CC[C@]2(C)[C@@H]2CC[C@@]3(C)[C@H](CC[C@]3(O)CCC(=O)O)[C@H]12 [NCGC00025253-01] |  |  | > 9 µM |  |
| C[C@]12C=CC(=O)C=C1CC[C@@H]1[C@H]3C[C@@H](O)[C@](O)(C(=O)CO)[C@@]3(C)C[C@H](O)[C@]12F [NCGC00016376-01] | 1.15 | 67.5 | 0.0827 µM | log qEC50 [2]: −7.082 |
| CC(=O)CC(=O)[C@@]1(O)CC[C@@H]2[C@@H]3C=C(C)C4=CC(=O)CC[C@@H]4[C@H]3CC[C@]21C [NCGC00016884-01] | 0.57 | 15.6 |  |  |
| CC(=O)[C@H]1CC[C@H]2[C@@H]3C=CC4=CC(=O)CC[C@@]4(C)[C@@H]3CC[C@]12C [NCGC00016413-01] |  |  |  | qHTS Curve Class: 4 (inactive, where activity was below 28.6% (3σ for the present assay)); EC50: > 9 µM |
| CCC(=O)O[C@]1(C(=O)SCF)[C@H](C)C[C@H]2[C@@H]3C[C@H](F)C4=CC(=O)C=C[C@]4(C)[C@@]3(F)[C@@H](O)C[C@@]21C [NCGC00016943-01] | 1.50 | 115.3 |  |  |
| CC(=O)O[C@@H]1[C@H]([N+]2(C)CCCCC2)C[C@@H]2[C@@H]3CC[C@@H]4C[C@@H](OC(C)=O)[C@H]([N+]5(C)CCCCC5)C[C@@]4(C)[C@H]3CC[C@]21C [NCGC00015804-01] |  |  | > 9 µM |  |
| C[C@@]12CCC(=O)C=C1CC[C@H]1[C@H]3CC[C@](O)(C(=O)CO)[C@]3(C)CC[C@@H]12 [NCGC00015886-01] | 0.59 | 41.2 | 0.434 µM | log qEC50 [2]: −6.363 |
| CC(=O)[C@@]1(O)CC[C@@H]2[C@@H]3CCC4=CC(=O)CC[C@@]4(C)[C@H]3CC[C@]21C [NCGC00015510-01] | 0.35 | 100.0 |  |  |
| CC1(C)CC[C@]2(C(=O)O)CC[C@]3(C)C(=CC[C@@H]4[C@@]5(C)CC[C@H](O)C(C)(C)[C@@H]5CC[C@@]43C)[C@@H]2C1 [NCGC00017222-01] |  |  |  | qHTS Curve Class: 4 (inactive, where activity was below 28.6% (3σ for the present assay)); EC50: > 9 µM |
| CC(=O)[C@@]1(O)CC[C@H]2[C@@H]3C[C@H](C)C4=CC(=O)C=C[C@]4(C)[C@@]3(F)[C@@H](O)C[C@@]21C [NCGC00016442-01] | 0.63 | 84.0 | 0.00821 µM | log qEC50 [2]: −8.086 |
| CC(=O)OCC(=O)[C@@]12OC(C)(C)O[C@@H]1C[C@H]1[C@@H]3C[C@H](F)C4=CC(=O)C=C[C@]4(C)[C@@]3(F)[C@@H](O)C[C@@]12C [NCGC00016436-01] |  | 47.0 | 0.0128 µM | log qEC50 [2]: −7.893 |
| C[C@@H]1C[C@@H]2[C@H]3CCC4=CC(=O)C=C[C@]4(C)[C@]3(Cl)[C@@H](O)C[C@@]2(C)[C@@]1(O)C(=O)CO [NCGC00015136-01] | 0.67 | 105.1 |  |  |
| CC(=O)O[C@@H]1CC[C@]2(C)[C@H]3CC[C@]4(C)[C@H](C[C@H]5CCCC[C@@]54C(C)=O)[C@@H]3CC(=O)[C@@]2(O)C1 [NCGC00017282-01] |  |  | > 9 µM |  |
